The values that follow come from US4732970A, “Antitumor amino acid and peptide derivatives of 1,4-bis(aminoalkyl and hydroxy-aminoalkyl)amino)-5,8-dihydroxyanthraquinones” (priority 1986, dated 1988).

Each structure is given as a SMILES string. *1 amine or outer side, *2 acyl side, *3 side chain or, on linkers, in order; H or OH if unused. Where a SMILES comes first, the peptide text is derived from it. Bridges are numbered along the chain shown (N, C = ends). Roman numbers before positions name the chains, in order. X1 = O=C1c2c(O)ccc(O)c2C(=O)c2c(NCCN[*:2])ccc(NCCN[*:1])c21

In this assay the test system is lymphocytic leukemia P388. Kind of assay: Lymphocytic Leukemia P388 Test. Type of assay: in vivo, BDF1 mice. The following applies: for Median Survival: BDF1 mice; for T/C × 100 (%): ratio of survival time treated/control; for response vs control in vivo at 0.75 mg/kg / response vs control in vivo at 1.5 mg/kg / response vs control in vivo at 3 mg/kg: Mus musculus, P388, ip, read-out: T/C × 100 (%). In a few lines:
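BDF1 mice (5–6 per group) were inoculated i.p. with 10^6 P388 cells, then dosed i.p. on days 1, 5 and 9 at various doses. Survival was followed for 60 days, and median survival time and the treated/control (T/C) survival ratio were calculated.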

The mark [1] stands for this setting: dose 0.75 mg/kg intraperitoneally on days 1, 5 and 9.
[2] abbreviates: dose 1.5 mg/kg intraperitoneally on days 1, 5 and 9.
Where [3] appears, read: dose 3 mg/kg intraperitoneally on days 1, 5 and 9.

For `Br.Br.NCC(=O)NCC(=O)NCCNc1ccc(NCCNC(=O)CNC(=O)CN)c2c1C(=O)c1c(O)ccc(O)c1C2=O` [Example 58, N,N'-[(9,10-Dihydro-5,8-dihydroxy-9,10-dioxo-1,4-anthracenediyl)bis(imino-2,1-ethanediyl)]bis[glycyl-glycinamide]dihydrobromide], the “Median Survival” value runs as follows: under setting [1], 22.0 days; under setting [2], 21.5 days; under setting [3], 24.0 days. Besides, the “T/C × 100 (%)” value runs as follows: under setting [1], 200%; under setting [2], 195%; under setting [3], 218%.
As for `CC(C)(C)OC(=O)NCC(=O)NCC(=O)NCC(=O)NCCNc1ccc(NCCNC(=O)CNC(=O)CNC(=O)CNC(=O)OC(C)(C)C)c2c1C(=O)c1c(O)ccc(O)c1C2=O` [Example 59, N,N'-[(9,10-Dihydro-5,8-dihydroxy-9,10-dioxo-1,4-anthracenediyl)bis(imino-2,1-ethanediyl)]bis[N-[(1,1-dimethylethoxy)carbonyl]glycylglycyl]glycinamide], the “Median Survival” value runs as follows: under setting [1], 15.0 days; under setting [2], 15.5 days; under setting [3], 18.0 days. The “T/C × 100 (%)” value reads like this: under setting [1], 136%; under setting [2], 141%; under setting [3], 164%.
As for `NCC(=O)NCC(=O)NCC(=O)NCCNc1ccc(NCCNC(=O)CNC(=O)CNC(=O)CN)c2c1C(=O)c1c(O)ccc(O)c1C2=O.O=C(O)C(F)(F)F.O=C(O)C(F)(F)F` [Example 60, N,N'-[(9,10-Dihydro-5,8-dihydroxy-9,10-dioxo-1,4-anthracenediyl)bis(imino-2,1-ethanediyl)]bis[glycylglycylglycinamide]bis(trifluoroacetate)], the “Median Survival” value turned out to be 19.5 days under setting [1], 23.0 days under setting [2] and 22.0 days under setting [3]. Also, the “T/C × 100 (%)” value turned out to be 177% under setting [1], 209% under setting [2] and 200% under setting [3].
Regarding `Br.Br.CC(C)C[C@H](NC(=O)[C@@H]1CCCN1C(=O)CN)C(=O)NCC(=O)N1CCC[C@H]1C(=O)NCCNc1ccc(NCCNC(=O)[C@@H]2CCCN2C(=O)CNC(=O)[C@H](CC(C)C)NC(=O)[C@@H]2CCCN2C(=O)CN)c2c1C(=O)c1c(O)ccc(O)c1C2=O` [Example 62, N,N'-[(9,10-Dihydro-5,8-dihydroxy-9,10-dioxo-1,4-anthracenediyl)bis(imino-2,1-ethanediyl)]bis[glycyl-L-prolyl-L-leucylglycyl-L-prolinamide]dihydrobromide], the “Median Survival” value reads like this: under setting [1], 19.0 days; under setting [2], 22.0 days; under setting [3], 24.5 days. Also, the “T/C × 100 (%)” value by setting is: under setting [1], 190%; under setting [2], 220%; under setting [3], 245%.
For the compound `Br.Br.C[C@H](NC(=O)[C@@H]1CCCN1C(=O)CNC(=O)CNC(=O)[C@@H]1CCCN1C(=O)CN)C(=O)NCCNc1ccc(NCCNC(=O)[C@H](C)NC(=O)[C@@H]2CCCN2C(=O)CNC(=O)CNC(=O)[C@@H]2CCCN2C(=O)CN)c2c1C(=O)c1c(O)ccc(O)c1C2=O` [Example 64, N,N'-[(9,10-Dihydro-5,8-dihydroxy-9,10-dioxo-1,4-anthracenediyl)bis(imino-2,1-ethanediyl)]bis[glycyl-L-prolylglycylglycyl-L-prolyl-L-alaninamide]-dihydrobromide] (I: H-GPGGPA / II: H-GPGGPA; linker I:C-II:C via X1), the response vs control in vivo at 0.75 mg/kg worked out at 195%, the response vs control in vivo at 1.5 mg/kg was determined as 205% and the response vs control in vivo at 3 mg/kg is 255%. Besides, the “Median Survival” value under setting [1] is 19.5 days. Further, the “Median Survival” value under setting [2] came out at 20.5 days. Moreover, the “Median Survival” value under setting [3] came to 25.5 days.
In the case of `CC(C)C[C@H](NC(=O)[C@H](C)NC(=O)OC(C)(C)C)C(=O)NCCNc1ccc(NCCNC(=O)[C@H](CC(C)C)NC(=O)[C@H](C)NC(=O)OC(C)(C)C)c2c1C(=O)c1c(O)ccc(O)c1C2=O` [Example 65], the “Median Survival” value under setting [1] is 12.0 days, the “Median Survival” value under setting [2] worked out at 12.0 days and the “Median Survival” value under setting [3] was determined as 13.5 days. In addition, the “T/C × 100 (%)” value is, setting by setting: under setting [1], 109%; under setting [2], 109%; under setting [3], 123%.
In the case of `CC(C)C[C@H](NC(=O)[C@H](C)N)C(=O)NCCNc1ccc(NCCNC(=O)[C@H](CC(C)C)NC(=O)[C@H](C)N)c2c1C(=O)c1c(O)ccc(O)c1C2=O.O=C(O)C(F)(F)F.O=C(O)C(F)(F)F` [Example 66, N,N'-[(9,10-Dihydro-5,8-dihydroxy-9,10-dioxo-1,4-anthracenediyl)bis(imino-2,1-ethanediyl)]bis[L-alanyl-L-leucinamide]bis(trifluoroacetate)], the “Median Survival” value under setting [1] came to 19.0 days, the “Median Survival” value under setting [2] came out at 20.0 days and the “Median Survival” value under setting [3] was 28.0 days. Also, the “T/C × 100 (%)” value by setting is: under setting [1], 173%; under setting [2], 182%; under setting [3], 255%.
Take `CC(C)C[C@H](NC(=O)[C@H](C)NC(=O)[C@H](C)NC(=O)OC(C)(C)C)C(=O)NCCNc1ccc(NCCNC(=O)[C@H](CC(C)C)NC(=O)[C@H](C)NC(=O)[C@H](C)NC(=O)OC(C)(C)C)c2c1C(=O)c1c(O)ccc(O)c1C2=O` [Example 67, N,N'-[(9,10-Dihydro-5,8-dihydroxy-9,10-dioxo-1,4-anthracenediyl)bis(imino-2,1-ethanediyl)]bis[N-[(1,1-dimethylethoxy)carbonyl]-L-alanyl-L-alanyl-L-leucinamide]]: the response vs control in vivo at 0.75 mg/kg is 155%, the response vs control in vivo at 1.5 mg/kg is 165% and the response vs control in vivo at 3 mg/kg came out at 160%. For the same compound, the “Median Survival” value under setting [1] worked out at 15.5 days. In addition, the “Median Survival” value under setting [2] was 16.5 days. The “Median Survival” value under setting [3] is 16.0 days.
`CC(C)C[C@H](NC(=O)[C@H](C)NC(=O)[C@H](C)N)C(=O)NCCNc1ccc(NCCNC(=O)[C@H](CC(C)C)NC(=O)[C@H](C)NC(=O)[C@H](C)N)c2c1C(=O)c1c(O)ccc(O)c1C2=O.O=C(O)C(F)(F)F.O=C(O)C(F)(F)F` [Example 68]: the “Median Survival” value was 21.0 days under setting [1], 21.5 days under setting [2] and 22.0 days under setting [3]. Moreover, the “T/C × 100 (%)” value was found to be 210% under setting [1], 215% under setting [2] and 220% under setting [3].
`CC(C)C[C@H](NC(=O)CNC(=O)CNC(=O)OCc1ccccc1)C(=O)NCCNc1ccc(NCCNC(=O)[C@H](CC(C)C)NC(=O)CNC(=O)CNC(=O)OCc2ccccc2)c2c1C(=O)c1c(O)ccc(O)c1C2=O` [Example 69, N,N'-[(9,10-Dihydro-5,8-dihydroxy-9,10-dioxo-1,4-anthracenediyl)bis(imino-2,1-ethanediyl)]bis[N-[(phenylmethoxy)carbonyl]glycylglycyl-L-leucinamide]]: the response vs control in vivo at 0.75 mg/kg worked out at 170%, the response vs control in vivo at 1.5 mg/kg stood at 170% and the response vs control in vivo at 3 mg/kg was 180%. Besides, under setting [1], the “Median Survival” value stood at 17.0 days. In addition, the “Median Survival” value under setting [2] worked out at 17.0 days. Under setting [3], the “Median Survival” value turned out to be 18.0 days.
As to `Br.Br.CC(C)C[C@H](NC(=O)CNC(=O)CN)C(=O)NCCNc1ccc(NCCNC(=O)[C@H](CC(C)C)NC(=O)CNC(=O)CN)c2c1C(=O)c1c(O)ccc(O)c1C2=O` [Example 70, N,N'-[(9,10-Dihydro-5,8-dihydroxy-9,10-dioxo-1,4-anthracenediyl)bis(imino-2,1-ethanediyl)]bis[glycylglycyl-L-leucinamide]dihydrobromide], the “Median Survival” value was found to be 22.0 days under setting [1], 22.5 days under setting [2] and 44.5 days under setting [3]. In addition, the “T/C × 100 (%)” value was determined as 220% under setting [1], 225% under setting [2] and 445% under setting [3].
`C[C@H](N)C(=O)N[C@@H](C)C(=O)N[C@@H](C)C(=O)NCCNc1ccc(NCCNC(=O)[C@H](C)NC(=O)[C@H](C)NC(=O)[C@H](C)N)c2c1C(=O)c1c(O)ccc(O)c1C2=O.O=C(O)C(F)(F)F.O=C(O)C(F)(F)F` [Example 73, N,N'-[(9,10-Dihydro-5,8-dihydroxy-9,10-dioxo-1,4-anthracenediyl)bis(imino-2,1-ethanediyl)]bis[L-alanyl-L-alanyl-L-alanine]bis(trifluoroacetate)]: the “Median Survival” value is, setting by setting: under setting [1], 21.0 days; under setting [2], 24.5 days; under setting [3], 40.0 days. The “T/C × 100 (%)” value runs as follows: under setting [1], 200%; under setting [2], 233%; under setting [3], 381%.
With `C[C@H](NC(=O)[C@H](CO)NC(=O)OC(C)(C)C)C(=O)NCCNc1ccc(NCCNC(=O)[C@H](C)NC(=O)[C@H](CO)NC(=O)OC(C)(C)C)c2c1C(=O)c1c(O)ccc(O)c1C2=O` [Example 75], the “Median Survival” value was found to be 18.5 days under setting [1], 19.0 days under setting [2] and 21.0 days under setting [3]. Further, the “T/C × 100 (%)” value reads like this: under setting [1], 154%; under setting [2], 158%; under setting [3], 175%.
Take `C[C@H](NC(=O)[C@@H](N)CO)C(=O)NCCNc1ccc(NCCNC(=O)[C@H](C)NC(=O)[C@@H](N)CO)c2c1C(=O)c1c(O)ccc(O)c1C2=O.O=C(O)C(F)(F)F.O=C(O)C(F)(F)F` [Example 76, N,N'-[(9,10-Dihydro-5,8-dihydroxy-9,10-dioxo-1,4-anthracenediyl)bis(imino-2,1-ethanediyl)]bis[L-seryl-L-alaninamide]bis(trifluoroacetate)]: the “Median Survival” value worked out at 22.0 days under setting [1], 22.5 days under setting [2] and 22.5 days under setting [3]. The “T/C × 100 (%)” value by setting is: under setting [1], 183%; under setting [2], 188%; under setting [3], 188%.
